Laboratory results as given in US9694002B2, “Substituted benzamides and methods of use thereof” (GENENTECH, INC., priority 2013, dated 2017).
Structures can show the parent of a compound that is named as a salt. Where two headings read alike, the source gives them in different places.

Columns and labels:
[1] = target: NaV1.7 (Homo sapiens (Human), UniProt Q15858); test: Electrophysiological assay (EP), patch voltage clamp, NaV1.7; assay type: cell-based; conditions: HEK-293 cells stably expressing human NaV1.7 with β1 subunit, whole-cell patch clamp, held at −60 mV (inactivated state)
Procedure: NaV1.7 and NaV1.5 cDNAs (NM_002977 and AG 137587; SCN5A, respectively) were stably expressed in HEK-293 cells.
Control sodium currents were measured in 0.5% DMSO.
Series resistance compensation was applied (60-80%).

[2] = target: hNav1.7 (Homo sapiens (Human), UniProt Q15858); test: Ligand binding assay: tritiated sulfonamide binding to membranes from cells expressing hNav1.7 and the β1 subunit
[3] = read-out: Ligand Binding Assay, competition with 100 pM [3H]compound, membranes with hNav1.7 and β1 subunit, room temperature, 18 h

hNav1.7, sequence (Q15858 whole entry): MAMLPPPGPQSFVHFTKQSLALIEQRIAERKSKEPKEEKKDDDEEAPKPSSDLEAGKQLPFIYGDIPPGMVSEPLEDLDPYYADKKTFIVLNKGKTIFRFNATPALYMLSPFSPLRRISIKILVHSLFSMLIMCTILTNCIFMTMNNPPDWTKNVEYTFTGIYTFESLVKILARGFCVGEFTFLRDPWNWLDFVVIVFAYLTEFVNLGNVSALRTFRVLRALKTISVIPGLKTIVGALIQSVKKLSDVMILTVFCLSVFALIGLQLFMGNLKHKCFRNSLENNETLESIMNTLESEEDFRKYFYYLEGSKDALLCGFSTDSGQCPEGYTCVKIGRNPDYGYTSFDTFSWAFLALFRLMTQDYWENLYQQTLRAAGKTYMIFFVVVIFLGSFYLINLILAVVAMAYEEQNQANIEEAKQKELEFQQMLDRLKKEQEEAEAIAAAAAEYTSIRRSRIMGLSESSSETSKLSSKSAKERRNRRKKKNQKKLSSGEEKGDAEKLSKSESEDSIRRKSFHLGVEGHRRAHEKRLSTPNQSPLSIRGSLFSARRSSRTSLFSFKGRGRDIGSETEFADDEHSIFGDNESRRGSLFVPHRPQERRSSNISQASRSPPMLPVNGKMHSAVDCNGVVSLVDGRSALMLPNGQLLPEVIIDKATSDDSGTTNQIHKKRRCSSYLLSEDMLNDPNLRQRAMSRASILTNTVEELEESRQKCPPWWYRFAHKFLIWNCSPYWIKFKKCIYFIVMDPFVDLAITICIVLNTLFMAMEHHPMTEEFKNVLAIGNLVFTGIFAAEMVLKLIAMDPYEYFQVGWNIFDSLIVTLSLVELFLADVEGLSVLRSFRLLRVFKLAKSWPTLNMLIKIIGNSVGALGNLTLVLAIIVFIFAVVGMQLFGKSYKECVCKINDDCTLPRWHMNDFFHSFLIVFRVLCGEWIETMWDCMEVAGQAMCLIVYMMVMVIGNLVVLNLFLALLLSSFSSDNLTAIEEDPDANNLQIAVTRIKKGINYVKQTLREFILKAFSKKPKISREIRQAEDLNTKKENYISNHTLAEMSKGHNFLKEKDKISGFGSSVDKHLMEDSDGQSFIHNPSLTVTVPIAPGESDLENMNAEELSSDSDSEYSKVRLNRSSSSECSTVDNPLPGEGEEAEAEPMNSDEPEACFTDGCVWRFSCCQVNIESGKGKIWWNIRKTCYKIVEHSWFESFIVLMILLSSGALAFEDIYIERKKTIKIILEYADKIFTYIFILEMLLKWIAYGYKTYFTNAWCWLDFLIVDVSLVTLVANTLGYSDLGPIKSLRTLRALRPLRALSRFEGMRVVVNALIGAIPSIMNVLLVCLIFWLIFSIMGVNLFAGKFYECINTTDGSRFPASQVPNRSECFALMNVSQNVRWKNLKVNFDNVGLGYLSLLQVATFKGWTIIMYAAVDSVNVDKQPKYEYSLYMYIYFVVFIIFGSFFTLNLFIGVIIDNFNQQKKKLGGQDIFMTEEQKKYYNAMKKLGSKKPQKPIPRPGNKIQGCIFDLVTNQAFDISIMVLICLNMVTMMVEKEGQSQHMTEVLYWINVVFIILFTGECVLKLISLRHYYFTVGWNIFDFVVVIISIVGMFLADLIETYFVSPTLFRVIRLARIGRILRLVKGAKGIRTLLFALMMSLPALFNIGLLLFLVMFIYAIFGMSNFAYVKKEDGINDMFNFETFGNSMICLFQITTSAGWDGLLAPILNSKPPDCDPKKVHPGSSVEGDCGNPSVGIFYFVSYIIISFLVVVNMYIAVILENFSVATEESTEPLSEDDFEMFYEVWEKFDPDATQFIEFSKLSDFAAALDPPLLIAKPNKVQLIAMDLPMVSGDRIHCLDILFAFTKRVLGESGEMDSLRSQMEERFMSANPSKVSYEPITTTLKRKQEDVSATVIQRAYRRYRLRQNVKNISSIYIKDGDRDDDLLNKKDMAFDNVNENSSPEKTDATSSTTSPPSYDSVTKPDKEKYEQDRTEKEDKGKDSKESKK
hNav1.7, sequence (Q07699 19-218 partner): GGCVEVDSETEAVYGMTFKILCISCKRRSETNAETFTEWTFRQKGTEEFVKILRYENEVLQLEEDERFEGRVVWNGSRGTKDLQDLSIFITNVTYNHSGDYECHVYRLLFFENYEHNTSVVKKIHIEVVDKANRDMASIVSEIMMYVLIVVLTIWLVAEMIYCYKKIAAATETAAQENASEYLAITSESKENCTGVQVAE
NaV1.7, sequence (Q15858 other isoform, or with tags, fused parts or gaps): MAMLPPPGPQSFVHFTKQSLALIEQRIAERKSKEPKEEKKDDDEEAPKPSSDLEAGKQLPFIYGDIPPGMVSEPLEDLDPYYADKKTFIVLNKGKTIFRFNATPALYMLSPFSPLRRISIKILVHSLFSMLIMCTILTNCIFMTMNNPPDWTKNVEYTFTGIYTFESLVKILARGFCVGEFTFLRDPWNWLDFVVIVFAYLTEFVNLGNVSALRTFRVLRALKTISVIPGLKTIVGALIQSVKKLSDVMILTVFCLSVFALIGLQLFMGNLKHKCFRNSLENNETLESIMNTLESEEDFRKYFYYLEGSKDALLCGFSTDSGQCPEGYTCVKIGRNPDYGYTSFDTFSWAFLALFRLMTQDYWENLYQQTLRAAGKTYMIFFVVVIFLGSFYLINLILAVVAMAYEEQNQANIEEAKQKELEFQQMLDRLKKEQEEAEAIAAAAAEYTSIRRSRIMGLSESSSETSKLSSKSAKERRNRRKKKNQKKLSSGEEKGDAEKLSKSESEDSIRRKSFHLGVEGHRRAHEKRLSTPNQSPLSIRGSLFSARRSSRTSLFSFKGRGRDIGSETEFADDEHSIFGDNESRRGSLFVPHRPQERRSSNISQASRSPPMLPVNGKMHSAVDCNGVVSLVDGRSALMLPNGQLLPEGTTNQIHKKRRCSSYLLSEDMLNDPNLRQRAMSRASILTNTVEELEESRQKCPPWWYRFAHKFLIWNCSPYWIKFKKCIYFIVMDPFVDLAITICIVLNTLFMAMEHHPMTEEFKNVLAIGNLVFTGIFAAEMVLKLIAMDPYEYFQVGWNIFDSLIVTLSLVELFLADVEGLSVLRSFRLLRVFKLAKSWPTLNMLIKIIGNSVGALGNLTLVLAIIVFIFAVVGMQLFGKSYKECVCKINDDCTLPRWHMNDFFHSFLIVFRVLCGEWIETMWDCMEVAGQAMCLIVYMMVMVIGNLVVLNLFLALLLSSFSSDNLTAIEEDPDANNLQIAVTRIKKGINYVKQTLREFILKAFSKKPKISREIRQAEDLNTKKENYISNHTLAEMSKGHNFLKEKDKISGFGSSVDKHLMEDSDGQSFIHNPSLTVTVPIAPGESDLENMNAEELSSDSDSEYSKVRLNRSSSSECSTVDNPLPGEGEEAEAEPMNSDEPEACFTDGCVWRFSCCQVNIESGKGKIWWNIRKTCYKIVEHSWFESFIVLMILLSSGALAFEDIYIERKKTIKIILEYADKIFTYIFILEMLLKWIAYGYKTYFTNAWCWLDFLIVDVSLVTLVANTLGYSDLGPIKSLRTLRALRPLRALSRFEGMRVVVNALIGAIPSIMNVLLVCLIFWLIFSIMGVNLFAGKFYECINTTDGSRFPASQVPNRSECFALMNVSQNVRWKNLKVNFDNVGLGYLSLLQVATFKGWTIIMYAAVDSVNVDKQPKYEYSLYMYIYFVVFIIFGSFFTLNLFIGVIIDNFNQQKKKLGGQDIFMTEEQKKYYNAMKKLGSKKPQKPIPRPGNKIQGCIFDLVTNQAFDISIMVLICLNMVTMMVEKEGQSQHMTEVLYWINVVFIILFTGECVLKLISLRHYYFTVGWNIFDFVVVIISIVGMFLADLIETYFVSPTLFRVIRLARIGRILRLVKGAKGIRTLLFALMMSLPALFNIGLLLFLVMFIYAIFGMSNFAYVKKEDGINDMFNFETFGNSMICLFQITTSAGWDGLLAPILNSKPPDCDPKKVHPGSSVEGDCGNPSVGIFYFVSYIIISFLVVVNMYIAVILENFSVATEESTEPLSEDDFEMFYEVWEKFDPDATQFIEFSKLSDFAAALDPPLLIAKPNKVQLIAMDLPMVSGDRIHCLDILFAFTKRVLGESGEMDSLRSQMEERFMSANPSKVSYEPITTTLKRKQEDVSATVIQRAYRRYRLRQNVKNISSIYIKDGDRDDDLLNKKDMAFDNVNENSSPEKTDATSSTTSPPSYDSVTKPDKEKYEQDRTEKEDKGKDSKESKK
NaV1.7, sequence (Q07699 19-218 partner): as the sequence (Q07699 19-218 partner) above

IC50 [1] [nM] | IC50 [2, 3] [nM] | IC50 [2] [nM] | Molecule
5.8 | 5 | – | C[C@@H](c1cc(Cl)cc(Cl)c1)N1CCC(COc2cc(F)c(C(=O)NS(=O)(=O)C3CC3)cc2C2CC2)CC1 (single isomer, unassigned) [Example 270]
– | 11.1 | – | C[C@H](c1cc(Cl)cc(Cl)c1)N1CCC[C@H](COc2cc(F)c(C(=O)NS(C)(=O)=O)cc2C2CC2)C1 (single isomer, unassigned) [Example 337, trifluoroacetic acid salt]
– | 7.4 | – | C[C@@H](c1cc(Cl)cc(Cl)c1)N1CCC[C@H](COc2cc(F)c(C(=O)NS(C)(=O)=O)cc2C2CC2)C1 (single isomer, unassigned) [Example 338, trifluoroacetic acid salt]
– | 5.7 | – | C[C@@H]1CC[C@@H](COc2cc(F)c(C(=O)NS(C)(=O)=O)cc2C2CC2)CN1[C@@H](C)c1cc(Cl)cc(Cl)c1 (single isomer, unassigned) [Example 342, trifluoroacetic acid salt]
– | 1.9 | – | C[C@@H](c1cc(Cl)cc(Cl)c1)N1CCC[C@@H](Oc2cc(F)c(C(=O)NS(C)(=O)=O)cc2C2CC2)C1 [Example 50]
– | 2060 | – | CS(=O)(=O)NC(=O)c1cc(C2CC2)c(OCC2CCN(S(=O)(=O)C3COC3)CC2)cc1F [Example 392, 5-cyclopropyl-2-fluoro-N-(methylsulfonyl)-4-((1-(oxetan-3-ylsulfonyl)piperidin-4-yl)methoxy)benzamide]
– | 14.2 | – | O=C(NS(=O)(=O)C1CC1)c1cc(C2CC2)c(CN2CCC(Oc3ccc(C(F)(F)F)cn3)CC2)cc1F [Example 477, 5-cyclopropyl-N-(cyclopropylsulfonyl)-2-fluoro-4-((4-((5-(trifluoromethyl)pyridin-2-yl)oxy)piperidin-1-yl)methyl)benzamide, trifluoroacetic acid salt]
– | – | 20.2 | CS(=O)(=O)NC(=O)c1cc(C2CC2)c(CN2CCN(S(=O)(=O)c3cc(Cl)cc(Cl)c3)CC2)cc1F [Example 526, 5-cyclopropyl-4-((4-((3,5-dichlorophenyl)sulfonyl)piperazin-1-yl)methyl)-2-fluoro-N-(methylsulfonyl)benzamide, trifluoroacetic acid salt]
– | 170 | – | (R)-5-cyclopropyl-4-((1-(3,5-dichlorobenzyl)-2-oxopiperidin-4-yl)methoxy)-2-fluoro-N-(methylsulfonyl)benzamide [Example 234]
– | 4.5 | – | (S)-5-cyclopropyl-N-(cyclopropylsulfonyl)-4-((1-(1-(3,5-dichlorophenyl)ethyl)-4-fluoropiperidin-4-yl)methoxy)-2-fluorobenzamide [Example 350]

Molecule | IC50 [1] [nM] | IC50 [2, 3] [nM] | IC50 [2] [nM]
O=C(NS(=O)(=O)C1CC1)c1cc(Cl)c(O[C@@H]2CCCN(Cc3ccc(F)cc3Cl)C2)cc1F [Example 39, (R)-5-chloro-4-((1-(2-chloro-4-fluorobenzyl)piperidin-3-yl)oxy)-N-(cyclopropylsulfonyl)-2-fluorobenzamide, trifluoroacetic acid salt] | – | 6.8 | –
CS(=O)(=O)NC(=O)c1cc(C2CC2)c(OCC2CCN(Cc3cccc(Cl)c3)CC2)cc1F [Example 92, 4-((1-(3-Chlorobenzyl)piperidin-4-yl)methoxy)-5-cyclopropyl-2-fluoro-N-(methylsulfonyl)benzamide] | – | 30.5 | –
(S)-5-cyclopropyl-4-((1-(1-(3,5-dichlorophenyl)ethyl)-4-fluoropiperidin-4-yl)methoxy)-2-fluoro-N-(methylsulfonyl)benzamide, trifluoroacetic acid salt [Example 349] | – | 4 | –
